# Data from patent US12139499B2, “Heteroaryl compounds for treating Huntington's disease” (PTC THERAPEUTICS, INC., priority 2018, dated 2024).
# System: Endogenous Huntingtin Protein
# Assay: Endogenous Huntingtin Protein Assay (ELISA-based MSD electrochemiluminescence)
# Type: cell-based
# Conditions: Table 1
# Procedure, shortened: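 Sandwich MSD electrochemiluminescence immunoassay. Capture used MW1 (expanded polyglutamine) or MAB2166 antibody coated at 1 μg/mL overnight at 4 °C. Samples were bound overnight at 4 °C, then a rabbit monoclonal detection antibody and SULFO-TAG anti-rabbit, each at 0.25 μg/mL, were applied for 1 h at room temperature.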
row,Structure (SMILES),IC50
1,"Cc1cn2nc(-c3cc(F)c4nc(C5CCNCC5)sc4c3)cc(OCc3ccccc3)c2n1 [Compound 187, 8-(benzyloxy)-6-[4-fluoro-2-(piperidin-4-yl)-1,3-benzothiazol-6-yl]-2-methylimidazo[1,2-b]pyridazine]",≤ 100 nM
2,"Cc1cn2nc(-c3cc(F)c4nc(C5CCNCC5)sc4c3)cc(N)c2n1 [Compound 188, 6-[4-fluoro-2-(piperidin-4-yl)-1,3-benzothiazol-6-yl]-2-methylimidazo[1,2-b]pyridazin-8-amine]",≤ 100 nM
3,"Cc1cn2nc(-c3cc(F)c4nc(C5CCNCC5)sc4c3)cc(O)c2n1 [Compound 189, 6-[4-fluoro-2-(piperidin-4-yl)-1,3-benzothiazol-6-yl]-2-methylimidazo[1,2-b]pyridazin-8-ol]",100 to 500 nM
4,"CC1CC(c2nc3ccc(-c4ccc5nn(C)cc5c4)cc3s2)CC(C)N1 (stereo not shown) [Compound 190, 2-(2,6-dimethylpiperidin-4-yl)-6-(2-methyl-2H-indazol-5-yl)-1,3-benzothiazole]",1000 to 3000 nM
5,"COc1cc(-c2cc(F)c3nc(C4CCNCC4)sc3c2)ccc1F [Compound 191, 4-fluoro-6-(4-fluoro-3-methoxyphenyl)-2-(piperidin-4-yl)-1,3-benzothiazole]",1000 to 3000 nM
6,"Cc1cn2nc(-c3cc(F)c4nc(N(C)C5CC6CCC(C5)N6)sc4c3)cc(C)c2n1 (stereo not drawn) [Compound 192, N-[(3-exo)-8-azabicyclo[3.2.1]oct-3-yl]-6-(2,8-dimethylimidazo[1,2-b]pyridazin-6-yl)-4-fluoro-N-methyl-1,3-benzothiazol-2-amine]",≤ 100 nM
7,"CN(c1nc2cnc(-c3cc(C#N)c4nn(C)cc4c3)nc2s1)C1CCNCC1 [Compound 193, 2-methyl-5-{2-[methyl(piperidin-4-yl)amino][1,3]thiazolo[5,4-d]pyrimidin-5-yl}-2H-indazole-7-carbonitrile]",≤ 100 nM
8,"Cc1cn2nc(-c3cc(F)c4nc(C56CCN(CC5)CC6)sc4c3)cc(C)c2n1 [Compound 194, 6-[2-(1-azabicyclo[2.2.2]oct-4-yl)-4-fluoro-1,3-benzothiazol-6-yl]-2,8-dimethylimidazo[1,2-b]pyridazine]",≤ 100 nM
9,"Cc1cn2nc(-c3cc(F)c4nc(C5CCNCC5)sc4c3)cc(Oc3ccccc3)c2n1 [Compound 195, 6-[4-fluoro-2-(piperidin-4-yl)-1,3-benzothiazol-6-yl]-2-methyl-8-phenoxyimidazo[1,2-b]pyridazine]",≤ 100 nM
10,"Cc1cn2cc(-c3ncc4nc(N(C)C5CCNCC5)sc4n3)cc(C#N)c2n1 [Compound 196, 2-methyl-6-{2-[methyl(piperidin-4-yl)amino][1,3]thiazolo[5,4-d]pyrimidin-5-yl}imidazo[1,2-a]pyridine-8-carbonitrile]",≤ 100 nM
11,"COc1cc(-c2ncc3nc(N(C)C4CC(C)(C)NC(C)(C)C4)sc3n2)cc2cn(C)nc12 [Compound 197, 5-(7-methoxy-2-methyl-2H-indazol-5-yl)-N-methyl-N-(2,2,6,6-tetramethylpiperidin-4-yl)[1,3]thiazolo[5,4-d]pyrimidin-2-amine]",100 to 500 nM
12,"Cc1cn2cc(-c3cc4sc(N(C)C5CCNCC5)nc4cn3)cc(C#N)c2n1 [Compound 198, 2-methyl-6-{2-[methyl(piperidin-4-yl)amino][1,3]thiazolo[4,5-c]pyridin-6-yl}imidazo[1,2-a]pyridine-8-carbonitrile]",≤ 100 nM
13,"Cc1cn2cc(-c3cc4sc(NC5CC6CCC(C5)N6)nc4cn3)cc(C#N)c2n1 (stereo not drawn) [Compound 199, 6-{2-[(3-exo)-8-azabicyclo[3.2.1]oct-3-ylamino][1,3]thiazolo[4,5-c]pyridin-6-yl}-2-methylimidazo[1,2-a]pyridine-8-carbonitrile]",≤ 100 nM
14,"COc1cc(-c2cc(F)c3nc(N(C)C4CC(C)(C)NC(C)(C)C4)sc3c2)nn2cc(C)nc12 [Compound 200, 4-fluoro-6-(8-methoxy-2-methylimidazo[1,2-b]pyridazin-6-yl)-N-methyl-N-(2,2,6,6-tetramethylpiperidin-4-yl)-1,3-benzothiazol-2-amine]",≤ 100 nM
15,"Cc1cn2nc(-c3cc(F)c4nc(N(C)C5CC(C)(C)NC(C)(C)C5)sc4c3)cc(N)c2n1 [Compound 201, 6-{4-fluoro-2-[methyl(2,2,6,6-tetramethylpiperidin-4-yl)amino]-1,3-benzothiazol-6-yl}-2-methylimidazo[1,2-b]pyridazin-8-amine]",100 to 500 nM
16,"COc1cc(-c2cc(F)c3nc(N(C)C4CCNCC4)sc3c2)nn2cc(C)nc12 [Compound 202, 4-fluoro-6-(8-methoxy-2-methylimidazo[1,2-b]pyridazin-6-yl)-N-methyl-N-(piperidin-4-yl)-1,3-benzothiazol-2-amine]",≤ 100 nM
17,"Cc1cn2cc(-c3cc4sc(N(C)C5CC6CCC(C5)N6)nc4cn3)cc(C#N)c2n1 (stereo not drawn) [Compound 203, 6-{2-[(3-exo)-8-azabicyclo[3.2.1]oct-3-yl(methyl)amino][1,3]thiazolo[4,5-c]pyridin-6-yl}-2-methylimidazo[1,2-a]pyridine-8-carbonitrile]",≤ 100 nM

row,Structure (SMILES),IC50
1,"Cc1cn2cc(-c3cc4sc(N(C)C5CC6CCC(C5)N6)nc4cn3)cc(F)c2n1 (stereo not drawn) [Compound 204, N-[(3-exo)-8-azabicyclo[3.2.1]oct-3-yl]-6-(8-fluoro-2-methylimidazo[1,2-a]pyridin-6-yl)-N-methyl[1,3]thiazolo[4,5-c]pyridin-2-amine]",≤ 100 nM
2,"CN(c1nc2cnc(-c3cc(F)c4nn(C)cc4c3)cc2s1)C1CC2CCC(C1)N2 (stereo not drawn) [Compound 205, N-[(3-exo)-8-azabicyclo[3.2.1]oct-3-yl]-6-(7-fluoro-2-methyl-2H-indazol-5-yl)-N-methyl[1,3]thiazolo[4,5-c]pyridin-2-amine]",≤ 100 nM
3,"CN(c1nc2cnc(-c3cc(C#N)c4nn(C)cc4c3)cc2s1)C1CC2CCC(C1)N2 (stereo not drawn) [Compound 206, 5-{2-[(3-exo)-8-azabicyclo[3.2.1]oct-3-yl(methyl)amino][1,3]thiazolo[4,5-c]pyridin-6-yl}-2-methyl-2H-indazole-7-carbonitrile]",≤ 100 nM
4,"Cc1cn2cc(-c3ncc4nc(N(C)C5CC6CCC(C5)N6)sc4n3)cc(C#N)c2n1 (stereo not drawn) [Compound 207, 6-{2-[(3-exo)-8-azabicyclo[3.2.1]oct-3-yl(methyl)amino][1,3]thiazolo[5,4-d]pyrimidin-5-yl}-2-methylimidazo[1,2-a]pyridine-8-carbonitrile]",≤ 100 nM
5,"CN(c1nc2cnc(-c3cc(C#N)c4nn(C)cc4c3)nc2s1)C1CC2CCC(C1)N2 (stereo not drawn) [Compound 208, 5-{2-[(3-exo)-8-azabicyclo[3.2.1]oct-3-yl(methyl)amino][1,3]thiazolo[5,4-d]pyrimidin-5-yl}-2-methyl-2H-indazole-7-carbonitrile]",≤ 100 nM
6,"Cc1cn2nc(-c3cc(F)c4nc(N(C)C5CC6CCC(C5)N6)sc4c3)ccc2n1 (stereo not drawn) [Compound 209, N-[(3-exo)-8-azabicyclo[3.2.1]oct-3-yl]-4-fluoro-N-methyl-6-(2-methylimidazo[1,2-b]pyridazin-6-yl)-1,3-benzothiazol-2-amine]",≤ 100 nM
7,"Cc1cn2nc(-c3cc(F)c4nc(C5(C)CCNCC5)sc4c3)cc(C)c2n1 [Compound 210, 6-[4-fluoro-2-(4-methylpiperidin-4-yl)-1,3-benzothiazol-6-yl]-2,8-dimethylimidazo[1,2-b]pyridazine]",500 to 1000 nM
8,"Cn1cc2cc(-c3cc4sc(NC5CC6CCC(C5)N6)nc4cn3)cc(F)c2n1 (stereo not drawn) [Compound 211, N-[(3-exo)-8-azabicyclo[3.2.1]oct-3-yl]-6-(7-fluoro-2-methyl-2H-indazol-5-yl)[1,3]thiazolo[4,5-c]pyridin-2-amine]",≤ 100 nM
9,"Cc1cn2cc(-c3cc4sc(NC5CC6CCC(C5)N6)nc4cn3)cc(F)c2n1 (stereo not drawn) [Compound 212, N-[(3-exo)-8-azabicyclo[3.2.1]oct-3-yl]-6-(8-fluoro-2-methylimidazo[1,2-a]pyridin-6-yl)[1,3]thiazolo[4,5-c]pyridin-2-amine]",≤ 100 nM
10,"Cn1cc2cc(-c3cc4sc(NC5CC6CCC(C5)N6)nc4cn3)cc(C#N)c2n1 (stereo not drawn) [Compound 213, 5-{2-[(3-exo)-8-azabicyclo[3.2.1]oct-3-ylamino][1,3]thiazolo[4,5-c]pyridin-6-yl}-2-methyl-2H-indazole-7-carbonitrile]",≤ 100 nM
11,"CN(c1nc2cnc(-c3cc(C#N)c4nn(C)cc4c3)cc2s1)C1CCNCC1 [Compound 214, 2-methyl-5-{2-[methyl(piperidin-4-yl)amino][1,3]thiazolo[4,5-c]pyridin-6-yl}-2H-indazole-7-carbonitrile]",≤ 100 nM
12,"Cc1cn2cc(-c3cc4sc(N(C)C5CCNCC5)nc4cn3)cc(F)c2n1 [Compound 215, 6-(8-fluoro-2-methylimidazo[1,2-a]pyridin-6-yl)-N-methyl-N-(piperidin-4-yl)[1,3]thiazolo[4,5-c]pyridin-2-amine]",≤ 100 nM
13,"CN(c1nc2cnc(-c3cc(F)c4nn(C)cc4c3)cc2s1)C1CCNCC1 [Compound 216, 6-(7-fluoro-2-methyl-2H-indazol-5-yl)-N-methyl-N-(piperidin-4-yl)[1,3]thiazolo[4,5-c]pyridin-2-amine]",100 to 500 nM
14,"Cc1cn2cc(-c3ncc4nc(N(C)C5CC6CCC(C5)N6)sc4n3)cc(F)c2n1 (stereo not drawn) [Compound 217, N-[(3-exo)-8-azabicyclo[3.2.1]oct-3-yl]-5-(8-fluoro-2-methylimidazo[1,2-a]pyridin-6-yl)-N-methyl[1,3]thiazolo[5,4-d]pyrimidin-2-amine]",≤ 100 nM
15,"CN(c1nc2cnc(-c3cc(F)c4nn(C)cc4c3)nc2s1)C1CC2CCC(C1)N2 (stereo not drawn) [Compound 218, N-[(3-exo)-8-azabicyclo[3.2.1]oct-3-yl]-5-(7-fluoro-2-methyl-2H-indazol-5-yl)-N-methyl[1,3]thiazolo[5,4-d]pyrimidin-2-amine]",100 to 500 nM
16,"Cc1cn2nc(-c3cc(F)c4nc(C5CCNCC5)sc4c3)cc(C(=O)O)c2n1 [Compound 219, 6-[4-fluoro-2-(piperidin-4-yl)-1,3-benzothiazol-6-yl]-2-methylimidazo[1,2-b]pyridazine-8-carboxylic acid]",1000 to 3000 nM
17,"COC(=O)Cc1cc(-c2cc(F)c3nc(C4CCNCC4)sc3c2)nn2cc(C)nc12 [Compound 220, methyl {6-[4-fluoro-2-(piperidin-4-yl)-1,3-benzothiazol-6-yl]-2-methylimidazo[1,2-b]pyridazin-8-yl}acetate]",≤ 100 nM
